Measurements as given in patent publication US7902218B2, “Substituted tetrahydroisoquinolines as β-secretase inhibitors” (Bristol-Myers Squibb Company, priority 2006, dated 2011).
Read-outs that look alike come from different tables or passages of the source.

Molecular target: T1, BACE1 enzyme (Homo sapiens, UniProt P56817)
T1 construct: which overexpresses the BACE1 enzyme, was derived from HEK293 cells; endogenous in cells; washed 48,000 x g pellet of the cell homogenate
Assay: Radioligand displacement assay with a radiolabeled BACE inhibitor, HEK293-9B.A1 cell homogenate
Assay type: binding
From the text: There are a number of methods by which inhibitors of the BACE enzyme can be identified experimentally. The enzyme can be obtained from membrane samples from natural tissues or cultured cells or can be expressed recombinantly in a host cell by well known methods of molecular biology. […] The enzymatic activity and/or ligand binding capability of the enzyme can be assessed within these membrane samples, or the enzyme can be purified to varying extents. As an illustrative example, the nucleic acid sequence encoding the pro and catalytic domains of human BACE can be appended on the 5′ end with an untranslated and signal sequence from the gene for acetylcholinesterase, and on the 3′ end with a sequence encoding a poly-histidine tag. This cDNA can then be expressed in Drosophila melanogaster S2 cells in which the signal and pro sequences of the transcribed/translated protein are removed by cellular proteases and the catalytic domain, appended by a C-terminal poly-histidine tag, is secreted out into the cellular medium. The enzyme can then be purified from the culture medium by nickel affinity chromatography by methods well known to those trained in the art [Mallender, W. et al., “Characterization of recombinant, soluble beta-secretase from an insect cell expression system.” Mol. Pharmacol. 2001, 59: 619-626]. Similar strategies for expressing and purifying various forms of BACE in bacterial, mammalian and other cell types would be known to one skilled in the art.
Radioligand displacement assays with a radiolabeled BACE inhibitor (WO 2004 013098, compound 3, where the methoxy group is substituted for C(^3H)3) were carried out using standard methods (Keen, M. (1999) in Receptor Binding Techniques (Walker, J. M. ed) p. 106 Humana Press, Totowa, N.J.). The HEK293-9B.A1 cell line, which overexpresses the BACE1 enzyme, was derived from HEK293 cells (Simmons, N. L. (1990) A cultured human renal epithelioid cell line responsive to vasoactive intestinal peptide. Exp. Physiol. 75:309-19.) by RAGE™ (Harrington, J. J. et al. (2001) Creation of genome-wide protein expression libraries using random activation of gene expression. Nat. Biotechnol. 19:440-5.; U.S. Pat. Nos. 6,410,266 and 6,361,972). T225 flask cultures of HEK293-9B.A1 were grown to 80% confluency in DMEM supplemented with 2 mM L-glutamine, 10 μg/ml penecillin, 10 μg/ml streptomycin, 3 μg/ml puromycin, 100 nM methotrexate, and 10% fetal bovine serum (Invitrogen, Carlsbad, Calif.), harvested, and resuspended at 2×10^8 cells per 10 ml of lysis buffer consisting of 50 mM HEPES pH 7.0 containing a protease inhibitor cocktail of AEBSF 104 μM, aprotinin 80 nM, leupeptin 2 μM, bestatin 4 μM, pepstatin A 1.5 μM, and E-64 1.4 μM (0.1% of protease inhibitor cocktail P8340, Sigma-Aldrich, St. Louis, Mo.) at 4° C. The resuspended cells were homogenized using a Polytron (Brinkman, Westbury, N.Y.) at setting 6 for 10 sec., then centrifuged at 48,000×g for 10 min. The resulting pellet was washed by repeating the resuspension, homogenization and centrifugation steps. The final pellet was resuspended in buffer at 4° C. to yield a total protein concentration of 5 mg/ml, then aliquots were frozen in liquid nitrogen for further storage at −70° C. Immediately before carrying out a binding assay, an aliquot of cell homogenate was thawed and diluted to a concentration of 100 μg/ml in assay buffer consisting of 50 mM HEPES pH 5.0 and 0.1% CHAPSO. Assays were initiated in polypropylene 96-well plates (Costar, Cambridge, Mass.) by the addition of 200 μl of cell homogenate to 50 μl of assay buffer containing 1 nM radioligand (WO 2004 013098, compound 3, where the methoxy group is substituted for C(^3H)3: 80 Ci/mMol) and various concentrations of unlabelled compounds, and incubated for 1.5 hr. at 25° C. Separation of bound from free radioligand was by filtration on GFF glass fiber filters (Innotech Biosystems International, Lansing, Mich.) using an Innotech cell harvester.

[1] = displacement of 1 nM tritiated radioligand, HEK293-9B.A1 homogenate, pH 5.0, 1.5 hr at 25° C., read-out: Activity Rating (Activity based on IC50 values)

T1 sequence (P56817 46-501): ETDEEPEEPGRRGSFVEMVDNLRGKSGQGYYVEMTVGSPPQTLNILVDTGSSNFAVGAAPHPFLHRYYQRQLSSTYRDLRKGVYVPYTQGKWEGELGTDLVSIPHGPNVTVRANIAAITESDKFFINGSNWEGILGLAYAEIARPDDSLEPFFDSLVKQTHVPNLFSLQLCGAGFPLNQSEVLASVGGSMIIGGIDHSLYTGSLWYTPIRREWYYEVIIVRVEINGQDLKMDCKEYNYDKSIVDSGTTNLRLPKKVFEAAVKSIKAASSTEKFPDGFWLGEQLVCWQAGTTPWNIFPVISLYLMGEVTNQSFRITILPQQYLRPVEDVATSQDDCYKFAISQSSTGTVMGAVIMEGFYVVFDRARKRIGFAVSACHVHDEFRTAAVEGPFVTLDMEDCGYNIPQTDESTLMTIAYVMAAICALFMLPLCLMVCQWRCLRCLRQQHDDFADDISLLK

SMILES: CCC(C)[C@@]1(NC(C)=O)CCN([C@@H](CCc2ccccc2)C(=O)N[C@@H](Cc2cc(F)cc(F)c2)[C@H](O)[C@H]2Cc3ccccc3CN2)C1=O (stereo in doubt) [Example 1, (S)-2-((S)-3-Acetamido-3-((R)-sec-butyl)-2-oxopyrrolidin-1-yl)-N-((1R,2S)-3-(3,5-difluorophenyl)-1-hydroxy-1-((R)-1,2,3,4-tetrahydroisoquinolin-3-yl)propan-2-yl)-4-phenylbutanamide]
- IC50 [1]: < 10 nM

SMILES: CCC(C)[C@@]1(NC(C)=O)CCN([C@@H](CCc2ccccc2)C(=O)N[C@@H](Cc2cc(F)cc(F)c2)[C@H](O)[C@@H]2Cc3ccccc3CN2)C1=O (stereo in doubt) [Example 2, (S)-2-((S)-3-Acetamido-3-((R)-sec-butyl)-2-oxopyrrolidin-1-yl)-N-((1R,2S)-3-(3,5-difluorophenyl)-1-hydroxy-1-((S)-1,2,3,4-tetrahydroisoquinolin-3-yl)propan-2-yl)-4-phenylbutanamide]
- IC50 [1]: 10 to 1000 nM

SMILES: CCCOc1cccc2c1CN[C@@H]([C@@H](O)[C@H](Cc1cc(F)cc(F)c1)NC(=O)[C@H](CCc1ccccc1)N1CC[C@](NC(C)=O)([C@H](C)CC)C1=O)C2 [Example 3, (S)-2-((S)-3-Acetamido-3-((R)-sec-butyl)-2-oxopyrrolidin-1-yl)-N-((1R,2S)-3-(3,5-difluorophenyl)-1-hydroxy-1-((R)-8-propoxy-1,2,3,4-tetrahydroisoquinolin-3-yl)propan-2-yl)-4-phenylbutanamide]
- IC50 [1]: < 10 nM

SMILES: CCCC[C@H]1CCN([C@@H](CCc2ccccc2)C(=O)N[C@@H](Cc2cc(F)cc(F)c2)[C@H](O)[C@H]2Cc3ccccc3CN2)C1=O [Example 4]
- IC50 [1]: > 1000 nM

SMILES: CCCC[C@H]1CCN([C@@H](C)C(=O)N[C@@H](Cc2cc(F)cc(F)c2)[C@H](O)[C@H]2Cc3ccccc3CN2)C1=O [Example 5, (S)-2-((S)-3-Butyl-2-oxopyrrolidin-1-yl)-N-((1R,2S)-3-(3,5-difluorophenyl)-1-hydroxy-1-((R)-1,2,3,4-tetrahydroisoquinolin-3-yl)propan-2-yl)propanamide]
- IC50 [1]: > 1000 nM

SMILES: CC(=O)N[C@]1(CC(C)C)CCN([C@@H](CCc2ccccc2)C(=O)N[C@@H](Cc2cc(F)cc(F)c2)[C@H](O)[C@H]2Cc3ccccc3CN2)C1=O [Example 6, (S)-2-((R)-3-Acetamido-3-isobutyl-2-oxopyrrolidin-1-yl)-N-((1R,2S)-3-(3,5-difluorophenyl)-1-hydroxy-1-((R)-1,2,3,4-tetrahydroisoquinolin-3-yl)propan-2-yl)-4-phenylbutanamide]
- IC50 [1]: < 10 nM

SMILES: CCC(C)[C@@]1(NC(C)=O)CCN([C@@H](CCc2ccccc2)C(=O)N[C@@H](Cc2cc(F)cc(F)c2)[C@H](O)C2Cc3cccc(OC)c3CN2)C1=O (stereo partly drawn) [Example 7, (2S)-2-((S)-3-Acetamido-3-sec-butyl-2-oxopyrrolidin-1-yl)-N-((1R,2S)-3-(3,5-difluorophenyl)-1-hydroxy-1-(8-methoxy-1,2,3,4-tetrahydroisoquinolin-3-yl)propan-2-yl)-4-phenylbutanamide]
- IC50 [1]: < 10 nM

SMILES: CCCCN(C)C(=O)n1cc(C(=O)N[C@@H](Cc2cc(F)cc(F)c2)[C@H](O)C2Cc3ccccc3CN2)c2cccnc21 (stereo partly drawn) [Example 8, N^1-Butyl-N^3-((1R,2S)-3-(3,5-difluorophenyl)-1-hydroxy-1-(1,2,3,4-tetrahydroisoquinolin-3-yl)propan-2-yl)-N^1-methyl-1H-pyrrolo[2,3-b]pyridine-1,3-dicarboxamide]
- IC50: > 1000 nM
